We go through 25 compounds from ChEMBL document CHEMBL5365513, “Discovery of Selective Tertiary Amide Inhibitors of Cyclin-Dependent Kinase 2 (CDK2)” (ACS Med Chem Lett, 2023).

The structures appear in SMILES notation.

Series [1] is described as follows: Selectivity ratio of Ki for ERK2 (unknown origin) to Ki for CDK2/Cyclin E1 (unknown origin).
A short description of series [2]: Metabolic stability in human liver microsomes assessed as clearance at 1 uM incubated upto 180 mins by LC/MS-MS analysis. The class given is ADME, Microsome. In general terms: Liver microsomes are a subcellular fraction often used to study metabolism.
The nature of series [3]: Selectivity ratio of Ki for CDK4/Cyclin D3 (unknown origin) to Ki for CDK2/Cyclin E1 (unknown origin).
The target of series [4] is Cyclin-dependent kinase 2/cyclin E1 (Homo sapiens, UniProt P24941). Put plainly: Binding affinity to CDK2/Cyclin E1 (unknown origin) using Ulight-MBP as substrate assessed as inhibition constant preincubated for 30 mins followed by substrate addition measured after 90 mins in presence of ATP by TR-FRET assay. Type of series: protein-complex assay.
Series [5] in a line: Metabolic stability in mouse liver microsomes assessed as clearance at 1 uM incubated upto 180 mins by LC/MS-MS analysis. Type of series: ADME, Microsome.
Series [6] concerns the target Mitogen-activated protein kinase 1 (Homo sapiens, UniProt P28482). Description: Binding affinity to ERK2 (unknown origin) using Ulight-MBP as substrate assessed as inhibition constant preincubated for 30 mins followed by substrate addition measured after 90 mins in presence of ATP by TR-FRET assay. On the technique in general: TR-FRET usually uses a lanthanide donor and a delayed reading to cut background.

The nature of series [7]: Antiproliferative activity against human OVISE cells assessed as inhibition of cell division incubated for 16 hrs by EdU incorporation assay. Type of series: functional, cell-based.
Series [8] is described as follows: Selectivity ratio of IC50 for human SK-OV-3 cells to IC50 for human OVISE cells. The class given is functional.
The nature of series [9]: Apparent permeability across apical to basolateral side in MDCK cells at 5 uM measured for 60 to 180 mins by LC-MS/MS analysis. The class given is ADME, cell-based, Canis lupus familiaris. As to conditions: dog, time 60-180 min.

Mitogen-activated protein kinase 1, sequence (P28482 whole entry): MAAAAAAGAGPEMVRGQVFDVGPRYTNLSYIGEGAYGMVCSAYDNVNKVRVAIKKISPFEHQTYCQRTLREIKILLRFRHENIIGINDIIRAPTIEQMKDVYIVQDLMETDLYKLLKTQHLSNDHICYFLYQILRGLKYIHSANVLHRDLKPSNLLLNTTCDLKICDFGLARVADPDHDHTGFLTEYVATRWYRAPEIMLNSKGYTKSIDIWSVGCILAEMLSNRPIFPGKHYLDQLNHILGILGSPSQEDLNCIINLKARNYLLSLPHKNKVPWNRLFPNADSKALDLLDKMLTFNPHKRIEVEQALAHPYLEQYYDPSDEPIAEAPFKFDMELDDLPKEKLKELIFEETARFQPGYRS

On to `C[C@H]1CCCN1C(=O)c1ccc2cnc(NC3CCN(S(C)(=O)=O)CC3)nc2c1`, for which the Ratio Ki is 110 in [1] and 4.2 in [3]. For the same compound, the results for the CLhep predicted at 1 µM in series [2] and in series [5] were under 3.9 mL/min/kg and 42 mL/min/kg, respectively. Further, the Ki in series [4] was determined as 71 nM.

Turning to `CNS(=O)(=O)c1ccc(Nc2ncc3ccc(C(=O)N4CCC[C@@H]4C)cc3n2)c(C)c1`, the Ratio Ki was found to be 4800 in [1] and 813 in series [3]. In addition, the CLhep predicted at 1 µM in series [2] is 18 mL/min/kg; in [5], 75 mL/min/kg. Besides, the Ki in series [4] was determined as 0.16 nM.

Turning to `CS(=O)(=O)N1CCC(Nc2ncc3ccc(C(=O)N4CCCC4)cc3n2)CC1`, the Ratio Ki in series [1] was 330; in series [3], 16. Also, the CLhep predicted at 1 µM in [2] was under 3.9 mL/min/kg; in [5], 20 mL/min/kg. Further, in series [4], the Ki worked out at 9 nM.

`O=C(N[C@H](CO)c1ccc(Cl)c(F)c1)c1ccc2cnc(NC3CCOCC3)cc2n1`: the Ki came out at 0.36 nM in series [6] and 11 nM in [4].

Regarding `C[C@H]1CCCN1C(=O)c1ccc2cnc(NC3CCN(S(N)(=O)=O)CC3)nc2c1`, the figures for the Ratio Ki in series [1] and in series [3] were 2800 and 78, respectively. The CLhep predicted at 1 µM in series [2] is under 3.9 mL/min/kg; in series [5], 30 mL/min/kg. In addition, the Ki in [4] was determined as 0.18 nM.

With `C[C@@]1(O)CCC[C@H]1n1c(=O)c(C(F)F)cc2cnc(NC3CCN(S(C)(=O)=O)CC3)nc21` [EBVACICLIB], the IC50 in series [7] came out at 46 nM.

Regarding `C[C@H]1CCN1C(=O)c1ccc2cnc(NC3CCN(S(C)(=O)=O)CC3)nc2c1`, the CLhep predicted at 1 µM was under 3.9 mL/min/kg in series [2] and under 14 mL/min/kg in [5]. Further, the Ratio Ki in series [3] amounted to 16. Also, the Ki in series [4] stood at 0.13 nM.

Regarding `CC1CCCCN1C(=O)c1ccc2cnc(NC3CCOCC3)cc2n1` (racemic), in series [1], the Ratio Ki came out at 13. Moreover, the Ki in series [4] is 750 nM.

In the case of `O=C(N[C@H](CO)c1ccc(Cl)c(F)c1)c1ccc2cnc(NC3CCOCC3)nc2c1`, the figures for the Ki in series [6] and in series [4] were 0.22 nM and 7.9 nM, respectively.

Regarding `Cc1cc(S(C)(=O)=O)ccc1Nc1ncc2ccc(C(=O)N3CCC[C@@H]3C)cc2n1`, the results for the Ratio Ki in series [1] and in series [3] were 310 and 42, respectively. Besides, the CLhep predicted at 1 µM was 13 mL/min/kg in series [2] and 58 mL/min/kg in [5]. In addition, the Ki in series [4] is 17 nM.

With `O=C(c1ccc2cnc(NC3CCOCC3)cc2n1)N1CCCC1`, the Ratio Ki in series [1] stood at 6.8. In addition, the Ki in series [4] is 88 nM.

On to `CNS(=O)(=O)c1ccc(Nc2ncc3ccc(C(=O)N4C[C@@H](O)[C@@H]4C)nc3n2)c(F)c1`, for which the CLhep predicted at 1 µM in [2] is under 3.9 mL/min/kg; in series [5] it was under 14 mL/min/kg. Moreover, the “Ratio IC50” value in series [8] stood at 47. In addition, the Papp A→B at 5 µM in series [9] was under 1 ×10⁻⁶ cm/s. For the same compound, the Ratio Ki in series [3] worked out at 89. In [4], the Ki was found to be 1 nM. For the same compound, in series [7], the IC50 was 430 nM.

`CNS(=O)(=O)c1ccc(Nc2ncc3ccc(C(=O)N4C[C@@H](F)C[C@@H]4C)cc3n2)c(C)c1`: the CLhep predicted at 1 µM is 16 mL/min/kg in series [2] and 69 mL/min/kg in series [5]. In addition, the “Ratio IC50” value in series [8] was found to be 43. The Papp A→B at 5 µM in series [9] turned out to be 12 ×10⁻⁶ cm/s. Moreover, the Ratio Ki in series [3] came out at 155. Moreover, the Ki in series [4] amounted to 0.49 nM. Further, the IC50 in series [7] turned out to be 130 nM.

As to `CNS(=O)(=O)c1ccc(Nc2ncc3ccc(C(=O)N4C[C@H](F)C[C@@H]4C)cc3n2)c(C)c1`, the results for the CLhep predicted at 1 µM in series [2] and in series [5] were 14 mL/min/kg and 67 mL/min/kg, respectively. Moreover, in series [8], the “Ratio IC50” value turned out to be 13. For the same compound, the Ratio Ki in series [3] came to 72. The Ki in series [4] was 8.7 nM. Besides, the IC50 in series [7] was found to be 1500 nM.

Take `CNS(=O)(=O)c1ccc(Nc2ncc3ccc(C(=O)N4C[C@@H](F)[C@@H]4C)nc3n2)c(F)c1`: the results for the CLhep predicted at 1 µM in series [2] and in series [5] were 17 mL/min/kg and 50 mL/min/kg, respectively. Moreover, the “Ratio IC50” value in [8] is listed as 88. The Papp A→B at 5 µM in [9] was 15 ×10⁻⁶ cm/s. Besides, the Ratio Ki in [3] was 271. Also, in series [4], the Ki was found to be 0.21 nM. Moreover, the IC50 in series [7] was 33 nM.

Consider `CNS(=O)(=O)c1ccc(Nc2ncc3ccc(C(=O)N4C[C@H](F)[C@@H]4C)nc3n2)c(F)c1`, for which the CLhep predicted at 1 µM in series [2] was 19 mL/min/kg; in series [5] it was 54 mL/min/kg. The “Ratio IC50” value in series [8] came to 36. Also, in series [9], the apparent permeability from apical to basolateral (Papp A→B) at 5 µM was found to be 13 ×10⁻⁶ cm/s. For the same compound, the Ratio Ki in [3] came out at 41. In addition, in series [4], the Ki was found to be 2.1 nM. The concentration for half-maximal inhibition (IC50) in series [7] came out at 360 nM.

With `CNS(=O)(=O)c1ccc(Nc2ncc3ccc(C(=O)N4C[C@@H](F)C[C@@H]4C)nc3n2)c(C)c1`, the values for the CLhep predicted at 1 µM in [2] and in [5] were 12 mL/min/kg and 19 mL/min/kg, respectively. The “Ratio IC50” value in series [8] is given as 48. Further, the Papp A→B at 5 µM in [9] is 1.6 ×10⁻⁶ cm/s. Further, in series [3], the Ratio Ki worked out at 270. The Ki in [4] came to 0.63 nM. The IC50 in [7] worked out at 250 nM.

On to `COCc1cc(C(=O)Nc2cc([C@H]3CC[C@@H](OC(=O)NC(C)C)C3)[nH]n2)n(C)n1` [TEGTOCICLIB], for which the half-inhibitory concentration (IC50) in series [7] worked out at 160 nM.

On to `O=C(c1ccc2cnc(NC3CCOCC3)cc2n1)N1CCCCCC1`, for which, in series [1], the Ratio Ki amounted to 28. Further, the Ki in series [4] turned out to be 240 nM.

In the case of `O=C(c1ccc2cnc(NC3CCOCC3)cc2n1)N1CCCCC1`, the Ratio Ki in [1] was determined as 4.3. Further, in series [4], the Ki turned out to be 920 nM.

Regarding `CNS(=O)(=O)c1ccc(Nc2ncc3ccc(C(=O)N4C[C@@H](F)C[C@@H]4C)nc3n2)c(F)c1`, the CLhep predicted at 1 µM is 13 mL/min/kg in series [2] and 56 mL/min/kg in series [5]. In addition, the “Ratio IC50” value in [8] is 38. Further, the Papp A→B at 5 µM in [9] was 4.9 ×10⁻⁶ cm/s. In series [3], the Ratio Ki was 155. The Ki in [4] was determined as 1.1 nM. In addition, in [7], the IC50 is 260 nM.

As to `C[C@@H]1CCCN1C(=O)c1ccc2cnc(NC3CCN(S(C)(=O)=O)CC3)nc2c1`, the Ratio Ki in [1] was over 10000; in series [3] it was 55. Also, the results for the CLhep predicted at 1 µM in series [2] and in series [5] were under 3.9 mL/min/kg and 37 mL/min/kg, respectively. For the same compound, the Ki in series [4] turned out to be 0.17 nM.

Consider `O=C(c1ccc2cnc(NC3CCOCC3)cc2n1)N1CCC1`, for which the Ratio Ki in [1] came to 1.8. Moreover, in series [4], the Ki worked out at 13 nM.

As to `O=C(N[C@H](CO)c1ccc(Cl)c(F)c1)c1ccc2cnc(NC3CCOCC3)nc2n1`, the inhibition constant Ki in [6] was determined as 0.17 nM; in [4] it was 6.5 nM.

Take `CNS(=O)(=O)c1ccc(Nc2ncc3ccc(C(=O)N4CCC[C@@H]4C)cc3n2)cc1`: the Ratio Ki in series [1] was 850; in series [3], 150. In addition, the CLhep predicted at 1 µM in [2] is 19 mL/min/kg; in [5], 76 mL/min/kg. In addition, the Ki in series [4] was 0.34 nM.

Usually Ki stands for the equilibrium dissociation constant of an inhibitor or competing ligand from its target. The term IC50 denotes the midpoint of a concentration-inhibition curve. The term Papp A→B denotes how fast a substance crosses the layer from the apical side.
